Reference: the supplement of paper PMC10307832

Columns and labels:
Test in all cases: relative viability (nuclei count vs DMSO), 5 days (fraction); higher = more cells survive
[1] = compound: CO[C@@H]1[C@H](N(C)C(=O)c2ccccc2)C[C@H]2O[C@]1(C)n1c3ccccc3c3c4c(c5c6ccccc6n2c5c31)C(=O)NC4 [Midostaurin] + N=C(N)NC(=N)NCCc1ccccc1 [Phenformin] (partner 250 µM)
Procedure, shortened: (§1)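 Five library-drug doses in √10 steps were combined with a fixed anchor-drug dose, or a single drug was given alone, by pin tool to lung cancer cell lines in 1536-well plates the day after seeding. Nuclei were stained and counted after 5 days. Relative viability is the nuclei count in treated wells over that in vehicle wells, taken as the median of duplicate plates.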

[2] = compound: CO[C@@H]1[C@H](N(C)C(=O)c2ccccc2)C[C@H]2O[C@]1(C)n1c3ccccc3c3c4c(c5c6ccccc6n2c5c31)C(=O)NC4 [Midostaurin] + CC1(C)CCC(c2ccc(Cl)cc2)=C(CN2CCN(c3ccc(C(=O)NS(=O)(=O)c4ccc(N[C@H](CCN5CCOCC5)CSc5ccccc5)c(S(=O)(=O)C(F)(F)F)c4)cc3)CC2)C1 [Navitoclax] (partner 0.5 µM)
Procedure, shortened: as §1

[3] = compound: COc1cc(-c2nn([C@H]3CC[C@H](N4CCN(C(C)=O)CC4)CC3)c3ncnc(N)c23)ccc1NC(=O)c1cc2ccccc2n1C + CCNC(=O)c1noc(-c2cc(C(C)C)c(O)cc2O)c1-c1ccc(CN2CCOCC2)cc1 [Luminespib] (partner 0.01 µM)
Procedure, shortened: as §1

[4] = compound: CO[C@@H]1[C@H](N(C)C(=O)c2ccccc2)C[C@H]2O[C@]1(C)n1c3ccccc3c3c4c(c5c6ccccc6n2c5c31)C(=O)NC4 [Midostaurin] + O=C(CCCCCCC(=O)Nc1ccccc1)NO [Vorinostat] (partner 1 µM)
Procedure, shortened: as §1

[5] = compound: COc1cc(-c2nn([C@H]3CC[C@H](N4CCN(C(C)=O)CC4)CC3)c3ncnc(N)c23)ccc1NC(=O)c1cc2ccccc2n1C + Cc1nc(Nc2ncc(C(=O)Nc3c(C)cccc3Cl)s2)cc(N2CCN(CCO)CC2)n1 [Dasatinib] (partner 0.075 µM)
Procedure, shortened: as §1

Cell Line	relative viability ([1]; first compound 0.01 µM)	relative viability ([1]; first compound 0.03162 µM)	relative viability ([1]; first compound 0.1 µM)	relative viability ([1]; first compound 0.3162 µM)	relative viability ([2]; first compound 0.01 µM)	relative viability ([2]; first compound 0.03162 µM)	relative viability ([2]; first compound 0.1 µM)	relative viability ([2]; first compound 0.3162 µM)	relative viability ([3]; first compound 0.0128 µM)	relative viability ([3]; first compound 0.128 µM)	relative viability ([3]; first compound 1.28 µM)	relative viability ([4]; first compound 0.01 µM)	relative viability ([4]; first compound 0.03162 µM)	relative viability ([4]; first compound 0.1 µM)	relative viability ([4]; first compound 0.3162 µM)	relative viability ([5]; first compound 0.0128 µM)	relative viability ([5]; first compound 0.128 µM)	relative viability ([5]; first compound 1.28 µM)	relative viability ([3]; first compound 0.04048 µM)	relative viability ([5]; first compound 0.04048 µM)
NCI-H2087	0.457	0.474	0.445	0.399	1	0.98	0.875	0.897	0.196	0.165	0.152	0.56	0.528	0.462	0.429	1.11	0.733	0.857	–	–
LC-2-ad	0.542	0.562	0.632	0.586	0.477	0.405	0.439	0.224	1.1	0.944	0.932	0.692	0.644	0.775	0.459	0.633	0.622	0.369	1.29	0.25
NCI-H1915	0.35	0.348	0.352	0.352	0.8	0.827	0.794	0.799	0.877	0.625	0.678	0.447	0.487	0.576	0.513	0.313	0.271	0.333	0.691	0.278
NCI-H1793	0.444	0.325	0.36	0.26	0.417	0.533	0.513	0.493	0.166	0.168	0.156	0.766	0.789	0.854	0.296	0.392	0.401	0.346	0.186	0.35
NCI-H2023	0.448	0.432	0.4	0.285	1.07	0.898	0.92	0.903	0.697	0.622	0.767	0.601	0.78	0.5	0.146	0.559	0.524	0.663	0.983	0.668
COR-L 105	0.535	0.44	0.473	0.389	0.733	0.941	0.51	0.862	0.641	0.737	0.479	0.899	0.846	0.702	0.535	0.323	0.287	0.362	0.707	0.448
RERF-LC-KJ	0.454	0.376	0.391	0.379	1.02	1.05	1.19	0.998	1.24	1.28	1.29	0.715	0.709	0.67	0.646	0.816	0.772	0.794	1.36	0.76
LXF-289	0.519	0.51	0.49	0.505	0.954	0.92	0.875	0.968	0.783	0.663	0.702	0.772	0.734	0.756	0.689	0.291	0.237	0.227	0.732	0.314
PC-14	0.603	0.717	0.522	0.52	0.973	1.01	0.985	0.965	0.196	0.232	0.121	0.719	0.673	0.67	0.666	0.243	0.282	0.278	0.138	0.265
NCI-H1666	0.496	0.537	0.546	0.537	0.872	0.855	0.84	0.846	0.926	1.01	1.04	1.12	0.985	1.02	0.999	0.766	0.802	0.756	0.994	0.807
NCI-H2085	0.718	0.627	0.749	0.583	1.16	1.06	1.02	0.757	0.416	0.445	0.43	0.79	0.783	0.822	0.637	0.237	0.249	0.219	0.524	0.246
NCI-H1734	0.421	0.354	0.453	0.366	0.829	0.813	0.798	0.697	0.219	0.16	0.172	0.796	0.818	0.855	0.467	0.429	0.531	0.516	0.19	0.599
NCI-H2126	0.519	0.467	0.565	0.564	0.92	0.826	0.824	0.903	0.947	0.844	0.648	0.812	0.631	0.866	0.831	0.635	0.626	0.506	0.957	0.609
EMC-BAC-2	0.508	0.508	0.458	0.283	1.19	1.09	0.981	1.08	1.21	1.23	1.06	0.415	0.437	0.407	0.476	0.309	0.244	0.481	1.18	0.391
NCI-H1993	0.476	0.498	0.477	0.508	0.964	0.901	0.972	0.992	0.768	0.589	0.767	0.83	0.782	0.87	0.38	0.5	0.428	0.599	0.825	0.499
